The values that follow come from patent US20210395235A1, “COMPOUND AS TGF-beta R1 INHIBITOR AND APPLICATION THEREOF” (NANJING SANHOME PHARMACEUTICAL CO., LTD., priority 2018, published 2021).

The target in one experiment is T1, ALK5 (Homo sapiens, UniProt P36897).
T1 construct: purchased Carna 09-141
T1 sequence (P36897 162-503 limits assumed): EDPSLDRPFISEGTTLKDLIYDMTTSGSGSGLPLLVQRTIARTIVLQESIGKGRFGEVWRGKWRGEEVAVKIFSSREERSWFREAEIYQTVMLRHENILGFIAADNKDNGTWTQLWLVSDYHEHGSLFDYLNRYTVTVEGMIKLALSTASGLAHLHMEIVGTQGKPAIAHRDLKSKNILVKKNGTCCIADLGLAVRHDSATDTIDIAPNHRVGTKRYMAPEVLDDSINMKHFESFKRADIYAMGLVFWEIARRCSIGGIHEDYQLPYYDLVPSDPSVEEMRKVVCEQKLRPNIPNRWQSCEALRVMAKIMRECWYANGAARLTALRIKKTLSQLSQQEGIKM
Briefly: In vitro activity against ALK5 kinase (ADP-Glo Kinase Assay). Type of experiment: biochemical. Conditions: 28° C. 120 minutes. The method, then:
For the compounds of the present disclosure prepared in the above examples, each compound was prepared into 10 mM with DMSO, and then diluted to 3.333 μM, 1.111 μM, 370 nM, 123 nM, 41 nM, 14 nM, 4.6 nM, 1.5 nM and 0.5 nM successively.
Reagents: ALK5, Cat. No. 09-141, purchased from Carna; p38α, Cat. No. 04-152, purchased from the Carna; TGFβR1 peptides, Cat. No. T36-58, purchased from SignalChem; dimethyl sulfoxide (DMSO), purchased from Sigma, US; EDTA, purchased from Sigma, US; and ADP-Glo Kinase Assay, Cat. No. v9102/3, 1×Kinase buffer (40 mM Tris, pH7.5, 0.10% BSA, 20 mM MgCl2, 1 mM DTT), purchased from Promega, and prepared immediately before use.
2.2.1.1 Preparation of 50-fold compounds: The compounds were prepared into 500 μM, 50-fold concentration as the final concentration 10 μM for detecting the compounds, which was performed as following: into a second well of a 96-well plate, 95 μl of 100% DMSO was added, and then 5 μl of the 10 mM compound solution was added, to prepare a […] compound solution; into other wells, 60 μl of 100% DMSO was added; from the second well, 30 μl of the compound was drawn out and added into a third well; such 3-fold serial dilution was continued successively until 10 dilutions of concentration were made.
The kinase was added to a 1× kinase buffer, to form a 2× enzyme solution. 2.5 μl of the 2× enzyme solution was added to a 384-well reaction plate which already contained 100 nl of 100% DMSO-dissolved compound, to incubate at room temperature for 10 minutes.
FAM labeled peptides and ATP were added to the 1× kinase buffer, to form a 2× substrate solution. 2.5 μl of the 2× substrate solution was added to the 384-well reaction plate.
The 384-well plate was incubated at 28° C. for 120 minutes.
2.5.1 An ADP-Glo reagent was equilibrated to room temperature.
2.5.2 5 μl of the reaction solution was transferred into a reaction well at another new 384-well plate.
2.5.3 5 μl of the ADP-Glo reagent was transferred into the reaction well at the 384-well plate to stop the reaction.
2.5.4 An incubation was performed at 28° C. for 120 minutes.
2.5.5 10 μl of a kinase detection reagent was transferred into each reaction well, shaken for 1 minute, and was allowed to stand for 30 minutes at room temperature.
The luminescence value of the sample was read from Envision.
2.7.1 Luminescence reading data were copied from the Envision program.
2.7.2 The values of the luminescence reading were converted into the percent inhibition by the following formula.
Percent inhibition=(max−sample RLU)/(max−min)×100, where “min” stands for the fluorescence reading of the control sample with no enzyme added to the reaction; and “max” stands for the fluorescence reading of the sample with DMSO added as a control.
2.7.3 The date were imported into MS Excel and subjected to curve fitting using XLFit excel add-in version 5.4.0.8 and a fitting formula: Y=Bottom+(Top−Bottom)/(1+(IC50/X)^HillSlope).

Experiment [1] concerns TGFβ-ALK5-SMAD2/3 signaling pathway in Luc-Smad2/3-NIH3T3 cells. Kind of experiment: In vitro cell luciferase assay in Luc-Smad2/3-NIH3T3 cells stimulated with TGFβ1. Type of experiment: cell-based. Conditions: Mus musculus; TGFβ1 4 ng/mL, 2% FBS medium, luciferase chemiluminescence. How it is done: Test compounds: For the compounds of the present disclosure prepared in the above examples, each compound was prepared into 4 mM using DMSO. Then, a 4-fold serial dilution was made to obtain 20000.00 nM, 5000.00 nM, 1250.00 nM, 312.5 nM, 78.125 nM, 19.53 nM, 4.88 nM and 1.22 nM successively.
Luc-Smad2/3-NIH3T3 mouse fibroblasts (engineered to overexpress SMAD2,3-responsive promoter) were provided by a laboratory of China Pharmaceutical University.
Reagents: DMEM, purchased from Invitrogen, US; FBS, purchased from Invitrogen, US; DMSO, purchased from Sigma, US; Glo Lysis Buffer, purchased from Progema, US; Bright-Glo Luciferase assay system, purchased from Promega, US; and TGFβ, purchased from PeproTech, US.
Instruments: MD SpectraMaX M3 multifunctional enzyme reader, purchased from Molecular Devices, US.
Cell recovery: The cells were dissolved by placing in a […] water bath, then transferred to a 15 mL of pre-warmed culture medium, and centrifuged at 1000 rpm for 5 minutes. After the culture medium was discarded, the cells were resuspend in 15 mL of fresh culture medium, transferred to a 10 cm dish, and placed in an incubator at 37° C. with 5% CO2 for culture. After 24 hours, the culture medium for the cells was changed with a fresh culture medium.
Cell passage: The recovered cells were transferred to a 50 mL sterile centrifuge tube and centrifuged at 1000 rpm for 5 minutes. The culture medium was discarded. The evenly dispersed cells was counted, and adjusted to an appropriate cell concentration of 15 mL of fresh culture medium, added to a 10 cm dish, and placed in an incubator at 37° C. with 5% CO2 for culture.
Luc-Smad2/3-NIH3T3 cells were cultured normally in a 10 cm culture dish until the confluence reached 80%-90%. After digestion, they were collected in a 15 mL centrifuge tube, centrifuged at 1000×g for 5 minutes to remove the supernatant, and resuspended with 1 mL of medium, then diluted 10 times and counted. The cells was diluted according to the results from the count, and transferred into a 96-well plate at 4×10^3/cells per well (100 μl of resuspended cells was added in each well).
1-2 mg of the drug was weighed (weighed in advance), and prepared into a 4 mM stock solution using DMSO. After 24 hours, the culture medium was removed. The drug was diluted with 2% FBS culture medium. 100 μl of the 1× drug solution was added to make the final concentration of the drug to be 20000.00 nM, 5000.00 nM, 1250.00 nM, 312.5 nM, 78.125 nM, 19.53 nM, 4.88 nM, and 1.22 nM. TGFβ1 was present in each well at a final concentration of 4 ng/mL, and diluted with 2% FBS culture medium together with the compounds.
The Glo Lysis Buffer and the Bright-glo luciferase assay system as well as the cells were equilibrated to room temperature. After the cell supernatant was removed, the cells were dissolved evenly by adding 100 μl of the Glo Lysis Buffer to each well with shaking slowly, and lysed at room temperature for 5 minutes. After that, to each well, 100 μl of the Bright-glo luciferase assay system was added to incubate the cells for 5 minute at room temperature with shaking for 2 minutes. Then, 180 μl of the supernatant was transferred to a white bottom 96-well plate to detect chemiluminescence signal. The detection condition was 1 s.
2.3 Data processing: Graphpad Prism 5 software was used to perform nonlinear curve fitting and data analysis to obtain IC50 by fitting.

Consider `CC(C)(O)c1cc(Nc2ccc3c(Oc4cn(C5CC5)nc4C4CCOCC4)ccnc3c2)ccn1` [Example 1, 2-(4-((4-((1-cyclopropyl-3-(tetrahydro-2H-pyran-4-yl)-1H-pyrazol-4-yl)oxy)quinolin-7-yl)amino)pyridin-2-yl)propan-2-ol], for which the figures for the IC50 (at ALK5; in experiment [1]) were 120 nM and 200 nM, respectively.
The like results for `c1cc(Oc2cn(C3CC3)nc2C2CCOCC2)c2ccc(N3CCOCC3)cc2n1` [Example 2, 4-(4-((1-cyclopropyl-3-(tetrahydro-2H-pyran-4-yl)-1H-pyrazol-4-yl)oxy)quinolin-7-yl)morpholine] were, in that order, 98 nM and 150 nM.
The like results for `FC(F)(F)c1nnc2n1CCN(c1ccc3c(Oc4cn(C5CC5)nc4C4CCOCC4)ccnc3c1)C2` [Example 3, 4-((1-cyclopropyl-3-(tetrahydro-2H-pyran-4-yl)-1H-pyrazol-4-yl)oxy)-7-(3-(trifluoromethyl)-5,6-dihydro-[1,2,4]triazolo[4,3-a]pyrazin-7(8H)-yl)quinoline] were, in that order, 80 nM and 102 nM.
As for `O=S1(=O)CCN(c2ccc3c(Oc4cn(C5CC5)nc4C4CCOCC4)ccnc3c2)CC1` [Example 4, 4-(4-((1-cyclopropyl-3-(tetrahydro-2H-pyran-4-yl)-1H-pyrazol-4-yl)oxy)quinolin-7-yl)thiomorpholine-1,1-dioxide], the IC50 against ALK5 was found to be 250 nM; in experiment [1], 140 nM.
The molecule `c1cc(Oc2cn(C3CC3)nc2C2CCOCC2)c2ccc(-c3cn[nH]c3)cc2n1` [Example 8, 4-((1-cyclopropyl-3-(tetrahydro-2H-pyran-4-yl)-1H-pyrazol-4-yl)oxy)-7-(1H-pyrazol-4-yl)quinoline] registered an IC50 in experiment [1] of 92 nM.
Same read-out and setting: next, `CS(=O)(=O)n1cc(-c2ccc3c(Oc4cn(C5CC5)nc4C4CCOCC4)ccnc3c2)cn1` [Example 9, 4-((1-cyclopropyl-3-(tetrahydro-2H-pyran-4-yl)-1H-pyrazol-4-yl)oxy)-7-(1-(methylsulfonyl)-1H-pyrazol-4-yl)quinoline]: 101 nM; `CS(=O)(=O)CCn1cc(-c2ccc3c(Oc4cn(C5CC5)nc4C4CCOCC4)ccnc3c2)cn1` [Example 10, 4-((1-cyclopropyl-3-(tetrahydro-2H-pyran-4-yl)-1H-pyrazol-4-yl)oxy)-7-(1-(2-(methylsulfonyl)ethyl)-1H-pyrazol-4-yl)quinoline]: 90 nM; `CC(C)(O)Cn1cc(-c2ccc3c(Oc4cn(C5CC5)nc4C4CCOCC4)ccnc3c2)cn1` [Example 11, 1-(4-(4-((1-cyclopropyl-3-(tetrahydro-2H-pyran-4-yl)-1H-pyrazol-4-yl)oxy)quinolin-7-yl)-1H-pyrazol-1-yl)-2-methylpropan-2-ol]: 96 nM.
Still for that read-out and setting: next, `CC(C)n1cc(-c2ccc3c(Oc4cn(C5CC5)nc4C4CCOCC4)ccnc3c2)cn1` [Example 12, 4-((1-cyclopropyl-3-(tetrahydro-2H-pyran-4-yl)-1H-pyrazol-4-yl)oxy)-7-(1-isopropyl-1H-pyrazol-4-yl)quinoline]: 77 nM; `FC(F)(F)Cn1cc(-c2ccc3c(Oc4cn(C5CC5)nc4C4CCOCC4)ccnc3c2)cn1` [Example 13, 4-((1-cyclopropyl-3-(tetrahydro-2H-pyran-4-yl)-1H-pyrazol-4-yl)oxy)-7-(1-(2,2,2-trifluoroethyl)-1H-pyrazol-4-yl)quinoline]: 81 nM.
Turning to `Cn1cc(-c2ccc3c(Oc4cn(C5CC5)nc4-c4ccccc4)ccnc3c2)cn1` [Example 14, 4-((1-cyclopropyl-3-phenyl-1H-pyrazol-4-yl)oxy)-7-(1-methyl-1H-pyrazol-4-yl)quinoline], in experiment [1], the IC50 is 46 nM.
Same read-out and setting: under `NS(=O)(=O)c1ccc(-c2ccc3c(Oc4cn(C5CC5)nc4C4CCOCC4)ccnc3c2)cc1` [Example 20, 4-(4-((1-cyclopropyl-3-(tetrahydro-2H-pyran-4-yl)-1H-pyrazol-4-yl)oxy)quinolin-7-yl)benzenesulfonamide] stands 75 nM; under `CS(=O)(=O)c1ccc(-c2ccc3c(Oc4cn(C5CC5)nc4C4CCOCC4)ccnc3c2)cn1` [Example 21, 4-((1-cyclopropyl-3-(tetrahydro-2H-pyran-4-yl)-1H-pyrazol-4-yl)oxy)-7-(6-(methylsulfonyl)pyridin-3-yl)quinoline], 49 nM.
Molecule `CS(=O)(=O)N1CC=C(c2ccc3c(Oc4cn(C5CC5)nc4C4CCOCC4)ccnc3c2)CC1` [Example 22, 4-((1-cyclopropyl-3-(tetrahydro-2H-pyran-4-yl)-1H-pyrazol-4-yl)oxy)-7-(1-(methylsulfonyl)-1,2,3,6-tetrahydropyridin-4-yl)quinoline] registered an IC50 in experiment [1] of 56 nM.
In the case of `FC(F)(F)c1nc2n(n1)CCN(c1ccc3c(Oc4cn(C5CC5)nc4C4CCOCC4)ccnc3c1)C2` [Example 23, 4-((1-cyclopropyl-3-(tetrahydro-2H-pyran-4-yl)-1H-pyrazol-4-yl)oxy)-7-(2-(trifluoromethyl)-5,6-dihydro-[1,2,4]triazolo[1,5-a]pyrazin-7(8H)-yl)quinoline], in experiment [1], the IC50 came to 200 nM.
